Where two headings read alike, the source gives them in different places.
Experiments:
[1] = ANTS/DPX liposome leakage assay, 3POPC/1POPG vesicles; type: biochemical; settings: for Peptide Concentration-induced 50% ANTS/DPX leakage at pH 4.8, 3POPC/1POPG Vesicle / Peptide Concentration-induced 50% ANTS/DPX leakage at pH 7.4, 3POPC/1POPG Vesicle: 0.5 mM vesicles; for Peptide Concentration-induced 50% ANTS/DPX leakage at pH 4.8, 3POPC/1POPG Vesicle: pH 4.8, lipid per peptide; for Peptide Concentration-induced 50% ANTS/DPX leakage at pH 7.4, 3POPC/1POPG Vesicle: pH 7.4, lipid per peptide; for liposome leakage activity from anionic vesicle at pH 4.8 (in words): anionic versus zwitterionic vesicle
Summary of the method: (§1)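 LUVs (100 nm extruded) of POPC or POPC:POPG 3:1, loaded with 5 mM ANTS/12.5 mM DPX, used at 0.5 mM lipid with peptide 0–20 μM in PBS pH 7.4 or HCl-adjusted PBS pH 4.8. Leakage read after 3 h (ex 350/em 510 nm) against 10% Triton maximum; 50% leakage expressed as lipid per peptide.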

[2] = ANTS/DPX liposome leakage assay, POPC vesicles; type: biochemical; settings: 0.5 mM vesicles; for Peptide Concentration-induced 50% ANTS/DPX leakage at pH 4.8, POPC Vesicle: pH 4.8, lipid per peptide; for Peptide Concentration-induced 50% ANTS/DPX leakage at pH 7.4, POPC Vesicle: pH 7.4, lipid per peptide
Summary of the method: as §1

[3] = test system: U2OS (human bone osteosarcoma); settings: 72 h
Summary of the method: (§2)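 MTT viability after 72 h exposure to 0–100 μM compound (final DMSO 0.5% or 0%), 5×10^3 cells/well; HMLER lines and MCF-10A in MEGM, U2OS in DMEM with 10% FBS. A550 normalized to matching vehicle controls; IC50 interpolated from dose–response curves.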

[4] = Tryptophan fluorescent binding assay, POPC vesicles; settings: 50 μM peptide, PBS pH 7.4, lipid per peptide
Summary of the method: (§3)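 Peptide fixed at 50 μM, titrated with POPC or 3POPC/1POPG large unilamellar vesicles (100 nm extruded; 0-5000 μM lipid) in PBS pH 7.4. Tryptophan fluorescence (ex 280, em 300-450 nm) read after 60 min; lipid concentration giving 50% binding reported as lipid/peptide ratio.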

[5] = Tryptophan fluorescent binding assay, 3POPC/1POPG vesicles; settings: 50 μM peptide, PBS pH 7.4, lipid per peptide
Summary of the method: as §3

[6] = test system: MCF-10A (human breast epithelial cell); assay: cells; settings: 72 h
Summary of the method: as §2

[7] = test system: HEK293T (human embryonic kidney cell); assay: cells; settings: 72 h
[8] = test system: HMLER (human breast cancer bulk cell); assay: cells; settings: 72 h
Summary of the method: as §2

[9] = test system: HMLER-shEcad (human breast cancer stem cell); assay: cells
Summary of the method: as §2

[10] = test system: HMLER-shEcad cells; assay: HMLER-shEcad viability with co-incubated necroptosis/apoptosis inhibitors; type: cell-based, human; settings: 20 μM necrostatin-1 or 5 μM z-VAD-FMK (FIG. 9C, 9D)
[11] = test system: HMLER-shEcad mammospheres; assay: Tumoursphere formation and viability assay (TOX8); type: cell-based, human

CC(C)C[C@H](NC(=O)CN)C(=O)N[C@@H](CC(C)C)C(=O)N[C@@H](CCC(=O)O)C(=O)N[C@@H](CC(C)C)C(=O)N[C@@H](CC(C)C)C(=O)N[C@@H](CCC(=O)O)C(=O)N[C@@H](CC(C)C)C(=O)N[C@@H](CC(C)C)C(=O)N[C@@H](CC(C)C)C(=O)N[C@@H](Cc1c[nH]cn1)C(=O)N[C@@H](C)C(=O)N[C@@H](C)C(=O)NCC(=O)N[C@@H](Cc1c[nH]c2ccccc12)C(N)=O [EEH]
Peptide Concentration-induced 50% ANTS/DPX leakage at pH 4.8, 3POPC/1POPG Vesicle [1]: 168 L/P | Peptide Concentration-induced 50% ANTS/DPX leakage at pH 7.4, 3POPC/1POPG Vesicle [1]: 755 L/P | liposome leakage activity from anionic vesicle at pH 4.8 (in words) [1]: relatively higher liposome leakage activity | Peptide Concentration-induced 50% ANTS/DPX leakage at pH 4.8, POPC Vesicle [2]: 58 L/P | Peptide Concentration-induced 50% ANTS/DPX leakage at pH 7.4, POPC Vesicle [2]: 738 L/P | IC50 [3]: 19.6 ± 3.96 µM | Lipid Concentration-induced 50% Peptide Binding, POPC Vesicle [4]: 0.50 L/P | Lipid Concentration-induced 50% Peptide Binding, 3POPC/1POPG Vesicle [5]: 0.50 L/P | IC50 [6]: ≥ 100 µM | IC50 [7]: 12.9 ± 0.14 µM | IC50 [8]: 3.3 ± 0.14 µM | IC50 ([9]; 72 h): 3.6 ± 0.85 µM

CC(C)C[C@H](NC(=O)CN)C(=O)N[C@@H](CC(C)C)C(=O)N[C@@H](CCC(=O)O)C(=O)N[C@@H](CC(C)C)C(=O)N[C@@H](CC(C)C)C(=O)N[C@@H](CCC(=O)O)C(=O)N[C@@H](CC(C)C)C(=O)N[C@@H](CC(C)C)C(=O)N[C@@H](CC(C)C)C(=O)N[C@@H](CCCCN)C(=O)N[C@@H](C)C(=O)N[C@@H](C)C(=O)NCC(=O)N[C@@H](Cc1c[nH]c2ccccc12)C(N)=O [EEK]
Peptide Concentration-induced 50% ANTS/DPX leakage at pH 4.8, 3POPC/1POPG Vesicle [1]: 386 L/P | Peptide Concentration-induced 50% ANTS/DPX leakage at pH 7.4, 3POPC/1POPG Vesicle [1]: 657 L/P | liposome leakage activity from anionic vesicle at pH 4.8 (in words) [1]: relatively higher liposome leakage activity | cell viability on co-incubation with necrostatin or z-VAD-FMK [10]: cannot be improved | Peptide Concentration-induced 50% ANTS/DPX leakage at pH 4.8, POPC Vesicle [2]: 39 L/P | Peptide Concentration-induced 50% ANTS/DPX leakage at pH 7.4, POPC Vesicle [2]: 730 L/P | Lipid Concentration-induced 50% Peptide Binding, POPC Vesicle [4]: 0.48 L/P | Lipid Concentration-induced 50% Peptide Binding, 3POPC/1POPG Vesicle [5]: 4.50 L/P

CC(C)C[C@H](NC(=O)CN)C(=O)N[C@@H](CC(C)C)C(=O)N[C@@H](CCC(=O)O)C(=O)N[C@@H](CC(C)C)C(=O)N[C@@H](CC(C)C)C(=O)N[C@@H](Cc1c[nH]cn1)C(=O)N[C@@H](CC(C)C)C(=O)N[C@@H](CC(C)C)C(=O)N[C@@H](CC(C)C)C(=O)N[C@@H](CCC(=O)O)C(=O)N[C@@H](C)C(=O)N[C@@H](C)C(=O)NCC(=O)N[C@@H](Cc1c[nH]c2ccccc12)C(N)=O [EHE]
Peptide Concentration-induced 50% ANTS/DPX leakage at pH 4.8, 3POPC/1POPG Vesicle [1]: 384 L/P | Peptide Concentration-induced 50% ANTS/DPX leakage at pH 7.4, 3POPC/1POPG Vesicle [1]: 706 L/P | liposome leakage activity from anionic vesicle at pH 4.8 (in words) [1]: relatively higher liposome leakage activity | Peptide Concentration-induced 50% ANTS/DPX leakage at pH 4.8, POPC Vesicle [2]: 75 L/P | Peptide Concentration-induced 50% ANTS/DPX leakage at pH 7.4, POPC Vesicle [2]: 952 L/P | IC50 [3]: 18.2 ± 1.06 µM | Lipid Concentration-induced 50% Peptide Binding, POPC Vesicle [4]: 0.44 L/P | Lipid Concentration-induced 50% Peptide Binding, 3POPC/1POPG Vesicle [5]: 0.44 L/P | IC50 [6]: ≥ 100 µM | IC50 [7]: 13 µM | IC50 [8]: 3.9 ± 0.28 µM | IC50 ([9]; 72 h): 2.55 ± 0.07 µM

CC(C)C[C@H](NC(=O)CN)C(=O)N[C@@H](CC(C)C)C(=O)N[C@@H](CCCCN)C(=O)N[C@@H](CC(C)C)C(=O)N[C@@H](CC(C)C)C(=O)N[C@@H](CCC(=O)O)C(=O)N[C@@H](CC(C)C)C(=O)N[C@@H](CC(C)C)C(=O)N[C@@H](CC(C)C)C(=O)N[C@@H](CCC(=O)O)C(=O)N[C@@H](C)C(=O)N[C@@H](C)C(=O)NCC(=O)N[C@@H](Cc1c[nH]c2ccccc12)C(N)=O [KEE]
Peptide Concentration-induced 50% ANTS/DPX leakage at pH 4.8, 3POPC/1POPG Vesicle [1]: 108 L/P | Peptide Concentration-induced 50% ANTS/DPX leakage at pH 7.4, 3POPC/1POPG Vesicle [1]: 657 L/P | Peptide Concentration-induced 50% ANTS/DPX leakage at pH 4.8, POPC Vesicle [2]: 97 L/P | Peptide Concentration-induced 50% ANTS/DPX leakage at pH 7.4, POPC Vesicle [2]: 626 L/P | IC50 [3]: 49.4 ± 13.3 µM | Lipid Concentration-induced 50% Peptide Binding, POPC Vesicle [4]: 0.20 L/P | Lipid Concentration-induced 50% Peptide Binding, 3POPC/1POPG Vesicle [5]: 0.20 L/P | IC50 [6]: ≥ 100 µM | IC50 [7]: 11.1 ± 1.84 µM | IC50 [8]: 3.75 ± 0.78 µM | IC50 ([9]; 72 h): 2.05 ± 0.21 µM

CC[C@@H](C(=O)[C@@H](C)[C@@H](O)[C@H](C)[C@@H]1O[C@@H]([C@@H](CC)C(=O)O)CC[C@@H]1C)[C@H]1O[C@]2(C=C[C@@H](O)[C@]3(CC[C@@](C)([C@H]4CC[C@](O)(CC)[C@H](C)O4)O3)O2)[C@H](C)C[C@@H]1C [Salinomycin, salinomycin, reference compound]
decrease in activity, two-dimensional versus mammospheres ([11]; HMLER-shEcad 2D IC50 versus mammosphere IC50): 63 fold | IC50 ([11]; Homo sapiens, read-out: IC50 in mammospheres): 22 ± 5 µM | IC50 ([6]; Homo sapiens, MCF-10A, read-out: IC50 MCF-10A): 9.76 ± 2.28 µM | IC50 ([7]; Homo sapiens, HEK-293T, read-out: IC50 HEK293T): 0.41 ± 0.1 µM | IC50 ([8]; Homo sapiens, read-out: IC50 HMLER): 0.37 ± 0.08 µM | IC50 ([9]; Homo sapiens, 72 h, read-out: IC50 HMLER-shEcad): 0.92 ± 0.28 µM | IC50 ([9]; Homo sapiens, read-out: IC50 against two-dimensional HMLER-shEcad): 0.37 ± 0.0005 µM

Reference: US20250326794A1, “ANTI-CANCER LEUCINE-RICH PEPTIDES AND USES THEREOF” (KING'S COLLEGE LONDON, priority 2019, published 2025)
